Assay results reported in ChEMBL document CHEMBL4325853, “Design, synthesis and antibacterial evaluation of 2,4-disubstituted-6-thiophenyl-pyrimidines” (Eur J Med Chem, 2019).
Calls of active or inactive are those of the source. The rule behind the calls is not given here.

Experiments:
[1] = molecular target: T1, Cell division protein FtsZ (Staphylococcus aureus) (UniProt P0A031); assay: Inhibition of recombinant Staphylococcus aureus FtsZ polymerization by 90 degree light scattering-based fluorescence spectrometric analysis
T1 sequence (whole entry): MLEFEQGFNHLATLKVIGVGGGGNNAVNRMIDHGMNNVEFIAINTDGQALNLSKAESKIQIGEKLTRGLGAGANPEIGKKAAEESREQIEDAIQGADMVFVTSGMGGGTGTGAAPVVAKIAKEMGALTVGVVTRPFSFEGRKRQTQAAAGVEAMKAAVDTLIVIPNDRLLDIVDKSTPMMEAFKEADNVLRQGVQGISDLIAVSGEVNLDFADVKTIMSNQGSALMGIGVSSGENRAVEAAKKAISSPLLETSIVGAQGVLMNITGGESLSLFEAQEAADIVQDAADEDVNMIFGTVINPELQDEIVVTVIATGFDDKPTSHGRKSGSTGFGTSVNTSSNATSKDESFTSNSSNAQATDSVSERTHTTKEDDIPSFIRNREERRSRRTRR

[2] = molecular target: T1, Cell division protein FtsZ (Staphylococcus aureus); assay: Inhibition of recombinant Staphylococcus aureus FtsZ polymerization assessed as reduction in size of protein polymers at 4 ug/ml preincubated for 10 mins followed by GTP addition and measured after 15 mins by transmission electron microscopic method
[3] = molecular target: T1, Cell division protein FtsZ (Staphylococcus aureus); assay: Inhibition of recombinant Staphylococcus aureus FtsZ polymerization assessed as reduction in bundling of protein protofilaments at 4 ug/ml preincubated for 10 mins followed by GTP addition and measured after 15 mins by transmission electron microscopic method
[4] = molecular target: T1, Cell division protein FtsZ (Staphylococcus aureus); assay: Inhibition of recombinant Staphylococcus aureus FtsZ GTPase activity assessed as reduction in inorganic phosphate formation after 30 mins by colorimetric method
[5] = molecular target: T1, Cell division protein FtsZ (Staphylococcus aureus); assay: Inhibition of recombinant Staphylococcus aureus FtsZ GTPase activity assessed as reduction in inorganic phosphate formation at 2 ug/ml after 30 mins by colorimetric method relative to control
[6] = molecular target: T1, Cell division protein FtsZ (Staphylococcus aureus); assay: Inhibition of recombinant Staphylococcus aureus FtsZ GTPase activity assessed as reduction in inorganic phosphate formation at 16 ug/ml after 30 mins by colorimetric method relative to control
Bacillus subtilis = assay: Induction of morphological changes in Bacillus subtilis 168 assessed as cell length at 2 ug/ml after 4.5 hrs by phase contrast microscopic analysis (reference value: 5 to 10 micrometer); assay type: functional, subsp. subtilis str. 168
Staphylococcus aureus [7] = assay: Ratio of MIC for Staphylococcus aureus ATCC 29213 after and before 11 to 21 serial passages; assay type: functional
[8] = Hemolytic activity against human erythrocytes measured after 1 hr; assay type: ADME, cell-based, Erythrocyte
[9] = Selectivity index, ratio of HC50 for human erythrocytes to MIC for methicillin-resistant Staphylococcus aureus ATCC BAA1720; assay type: toxicity; conditions: read-out: Selectivity Index
[10] = Selectivity index, ratio of HC50 for human erythrocytes to MIC for methicillin-resistant Staphylococcus aureus ATCC 33591; assay type: toxicity; conditions: read-out: Selectivity Index
[11] = Selectivity index, ratio of HC50 for human erythrocytes to MIC for methicillin-resistant Staphylococcus aureus ATCC 33592; assay type: toxicity; conditions: read-out: Selectivity Index
Staphylococcus aureus [12] = assay: Ratio of MIC for Staphylococcus aureus ATCC 29213 after and before 5 serial passages; assay type: functional
Staphylococcus aureus [13] = assay: Ratio of MIC for Staphylococcus aureus ATCC 29213 after and before 5 to 21 serial passages; assay type: functional

Compound | inhibition [1] | inhibition [2] | inhibition [3] | inhibition [4] | inhibition [5] [%] | inhibition [6] [%] | Activity (Bacillus subtilis) [um] | Ratio (Staphylococcus aureus [7]) | HC50 at 1 h [8] [µg/mL] | selectivity ratio [9] | selectivity ratio [10] | selectivity ratio [11] | Ratio (Staphylococcus aureus [12]) | Ratio (Staphylococcus aureus [13]) | Activity (Staphylococcus aureus [7])
CC(C)c1ccc(CN2CCCN(CCc3cc(-c4cccs4)nc(-c4ccncc4)n3)CC2)cc1 | Dose-dependent effect | Active | Active | Dose-dependent effect | 25 | 70 | >20 | 1 | > 64 | > 32 | > 32 | > 32 | – | – | –
COc1cccc(OC)c1C(=O)N[C@@H]1C(=O)N2[C@@H]1SC(C)(C)[C@@H]2C(=O)O [METHICILLIN] | – | – | – | – | – | – | – | – | – | – | – | – | 4 | 32 | –
CC(C)(C)c1ccc(CN2CCCN(CCc3cc(-c4cccs4)nc(-c4ccncc4)n3)CC2)cc1 | – | – | – | Dose-dependent effect | – | – | – | – | > 64 | > 32 | > 32 | > 32 | – | – | Active
